Series [1] in a line: in vivo. Also on record: species or system SD rats. To be noted: rat. The protocol: The study was performed in male SD rats. To determine oral bioavailability of bergenin, the bergenin was administered at 5 mg/kg by IV route and at 50 mg/kg by oral route. For comparative oral pharmacokinetic study of plain extract (IIIM-160-A002) and GRSR formulation (filled in 9el capsules), the dose equivalent to 6.2 mg/kg of bergenin was administered in SD rats in both these groups. Blood samples were collected (n=3/time point) at 0.083 (IV only), 0.25, 0.5, 1, 2, 4, 8 and 24 h, post-dose. At each time point about 200 μL of blood was collected by jugular vein into a labeled microfuge tube containing 200 mM K2EDTA solution (20 μL per mL of blood) and equivalent volume of heparinized saline was replaced following sample collection. The blood samples were processed to obtain the plasma samples within 30 min of scheduled sampling time. All plasma samples were stored below −60° C. until bioanalysis. The plasma samples were analyzed for bergenin content using a fit-for purpose LC-MS/MS method with a lower limit of quantification (LLOQ) of 9.95 ng/mL. The pharmacokinetic parameters of bergenin were calculated using the non-compartmental analysis tool of validated Phoenix® WinNonlin® software (version 6.3).

Series [2] deals with TNF-α. Description: In-vitro cytokine inhibition in LPS-treated THP-1 cells (ELISA), TNF-α. Type of series: cell-based, human. The following applies: LPS 1 μg/ml, 24 h, sample 12.5 μg/mL. The protocol:
(§1) For the in vitro analysis of pro-inflammatory cytokines (IL-6 and TNF-α), human leukemia THP-1 cells were seeded in a 24-well plate at a density of 4×10^5 cells/ml of RPMI medium per well. THP-1 cells were then treated with phorbol 12-myristate 13-acetate (20 ng/ml) for differentiation into macrophages for 18 h followed by a rest period of 48 h. Cells were further co-treated with test samples and 1 μg/ml of lipopolysaccharide (LPS) in a serum-free medium. Culture supernatant was harvested after 24 h for analysis of different cytokines by using OptEIA ELISA Kits from BD Biosciences. Total protein content for all the samples was calculated by using Bradford reagent from Bio-Rad Laboratories. All the samples were normalized by dividing cytokine concentration with total quantity of protein. Bergenin was reported earlier as an inhibitor of TNF-alpha and IL-6 and was therefore was used as a positive control in this assay.
On the technique in general: ELISA stands for enzyme-linked immunosorbent assay.

In series [3] the test system is IL-6. Nature of the series: In-vitro cytokine inhibition in LPS-treated THP-1 cells (ELISA), IL-6. Type of series: cell-based, human. To be noted: LPS 1 μg/ml, 24 h, sample 12.5 μg/mL. The protocol: as §1
Series [4] in a line: pH dependent stability of bergenin (HPLC, 24 h). Type of series: physicochemical. The following applies: at pH 7.4 and above. The protocol: The stability study was performed in pH 1.2 buffer, pH 4.0 buffer, phosphate buffer pH 6.8, phosphate buffered saline pH 7.4, SGF (pH 1.2), SIF (pH 6.8) and plasma. The % of bergenin hydrolyzed after 24 h was determined by HPLC analysis. The HPLC analysis was carried out using the method as described in example 2.

The conditions of series [5]: cited from earlier work.
For series [6] the following is noted: rats; cited from earlier work.

Each structure is given as a SMILES string. Like-named read-outs stand apart in the source and are kept apart here.

In general, bioavailability refers to the share of a dose that reaches the circulation, judged against a reference dose that is usually intravenous. A high value points to much systemic uptake. One may read the AUC(0-t) as exposure summed from dosing to a finite time, without extrapolation to infinity. A lower AUC(0-t) goes with less exposure. As usually defined, the clearance is the volume of plasma or blood freed of the substance per unit of time. Read a low clearance as inefficient removal. The half-life is how long it takes for the measured level to halve. Read a high half-life as slow decline. Usually Cmax stands for the maximum level reached in the sampled fluid or tissue. In general, inhibition refers to the percentage by which the read-out fell short of the control. High values mean a strong effect, low ones a weak effect.

The compound `COc1c(O)cc2c(c1O)[C@@H]1O[C@H](CO)[C@@H](O)[C@H](O)[C@H]1OC2=O` [Bergenin, bergenin] registered a bioavailability in series [1] (male, SD) of 3%. Besides, in series [1] (male, SD, iv, 5 mg/kg), the area under the curve AUC(0-t) was 874 ng·h/mL, the clearance amounted to 95.5 mL/min/kg, the half-life was 0.318 h and the “volume of distribution relative to normal total body water content (0.7 L/kg in rats)” value is given as roughly 1.50 fold. Besides, in series [1] (male, SD, po, 50 mg/kg), the AUC(0-t) is 269 ng·h/mL, the peak level (Cmax) was 170 ng/mL, the half-life is 1.74 h and the “median time to reach the maximum plasma concentration” value is 0.25 h. Also, the “clearance relative to normal hepatic blood flow (55 mL/min/kg in rats)” value in series [1] (iv, 5 mg/kg) was roughly 1.74 folds. 12.5 µg/mL produced 61% inhibition in series [2] (Homo sapiens). The “TNF-α (pg/mL)/total protein (μg)” value in series [2] is on record as 2.40 ± 0.25 (pg/mL)/total protein (μg). Moreover, in series [3] (Homo sapiens), the inhibition at 12.5 µg/mL turned out to be 98%. The “IL-6 (pg/mL)/total protein (μg)” value in series [3] was 0.08 ± 0.107 (pg/mL)/total protein (μg). In series [4], the “hydrolysis of bergenin after 24 h” value is on record as “gets hydrolyzed to its lactone ring opened product”. In series [5] (pH 1.2), the “stability at acidic pH of stomach” value is recorded as “stable”. Further, the “stability at intestinal pH” value in series [5] (pH 6.8 and above) is “gets degraded”. Moreover, the degradation half life in series [5] (pH 7) is 14.4 h. The degradation half life in series [5] (pH 8) was 2.9 h. Also, the “plasma half-life (t1/2)” value in series [6] is 1 to 2 h.

The record behind these values is patent publication US11446346B2, “Gastroretentive sustained release formulations of Bergenia ciliata” (COUNCIL OF SCIENTIFIC & INDUSTRIAL RESEARCH, priority 2017, dated 2022).
